Among the data in US12522594B2, “2-heteroaryl-3-oxo-2,3-dihydropyridazine-4-carboxamides for the treatment of cancer” (Deutsches Krebsforschungszentrum, priority 2017, dated 2026) are IC50 values, retold here.

Test [1] concerns the target T1, AHR (Homo sapiens, UniProt P35869).
T1 sequence (P35869 11-848): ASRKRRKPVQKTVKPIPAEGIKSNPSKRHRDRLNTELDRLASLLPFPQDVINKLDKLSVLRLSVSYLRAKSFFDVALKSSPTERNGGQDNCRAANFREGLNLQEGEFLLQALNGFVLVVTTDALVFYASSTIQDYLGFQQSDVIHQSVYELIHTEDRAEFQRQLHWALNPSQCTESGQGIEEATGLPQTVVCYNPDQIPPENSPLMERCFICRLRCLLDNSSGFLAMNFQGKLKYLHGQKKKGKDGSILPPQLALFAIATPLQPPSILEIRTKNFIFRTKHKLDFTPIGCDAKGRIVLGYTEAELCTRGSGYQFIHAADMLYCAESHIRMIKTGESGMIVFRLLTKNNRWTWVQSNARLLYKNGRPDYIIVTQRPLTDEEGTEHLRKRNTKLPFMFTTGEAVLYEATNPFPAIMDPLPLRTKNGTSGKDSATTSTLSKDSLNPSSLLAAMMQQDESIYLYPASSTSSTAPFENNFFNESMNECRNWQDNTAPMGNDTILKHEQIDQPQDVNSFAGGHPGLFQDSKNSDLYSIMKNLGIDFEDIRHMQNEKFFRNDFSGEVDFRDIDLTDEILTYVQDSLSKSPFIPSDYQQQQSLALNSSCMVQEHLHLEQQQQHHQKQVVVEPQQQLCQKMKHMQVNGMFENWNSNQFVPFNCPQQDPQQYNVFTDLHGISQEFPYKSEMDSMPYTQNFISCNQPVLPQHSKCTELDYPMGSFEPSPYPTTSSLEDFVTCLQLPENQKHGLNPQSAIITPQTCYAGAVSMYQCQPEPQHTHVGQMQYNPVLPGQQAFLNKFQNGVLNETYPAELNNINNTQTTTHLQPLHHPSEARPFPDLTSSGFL
As to the kind of experiment: In vitro assay 1: antagonism in human cell line (transactivation assay, U87 cells prestimulated with kynurenic acid, DRE firefly luciferase reporter). Also noted: host or cells: U87 glioblastoma cells, stably transfected with DRE firefly luciferase and renilla reporter constructs. The class given is cell-based. The settings on record: 150 uM kynurenic acid, 20 hours, read-out: Assay 1: AHR-luc Hum Antagonism IC50. The method, then:
(§1) Transactivation Assay in Human Cell Line (In Vitro Assays 1 and 2)
(§2) Transactivation assays were carried out in U87 glioblastoma cells (ATCC) endogenously expressing AHR. In addition the cells were stably transfected with an AHR inducible firefly luciferase reporter gene construct that carried AHR-binding sites (DRE) in its promoter and a renilla reporter gene construct with constitutively active promoter. Kynurenic acid is an endogenous AHR activating ligand and was used to prestimulate test cells prior to testing the antagonistic properties of compounds.
In Vitro Assay 1: Antagonism in Human Cell Line
Normalization was done by positive and negative controls.
For orientation: Reporter assays use an easily measured gene product as a stand-in for the process of interest.

Test [2] deals with T1, AHR. As to the kind of experiment: In vitro assay 2: agonism in human cell line (transactivation assay, U87 cells, DRE firefly luciferase reporter). The format is cell-based. Also on record: host or cells: U87 glioblastoma cells, stably transfected with DRE firefly luciferase and renilla reporter constructs. The settings on record: no kynurenic acid, 20 hours, read-out: Assay 2: AHR-luc Hum Agonism IC50. The method, then: as §1, §2
In Vitro Assay 2: Agonism in Human Cell Line
As positive activation control cells were incubated with 300 uM kynurenic acid. Normalization was done by positive and negative controls.

A value given as a limit tells only on which side of the number the result lay.

Regarding `C[C@H](CO)NC(=O)c1cc(-c2ccc(Cl)cc2)nn(-c2cncc(F)c2)c1=O` [Example 81, 6-(4-Chlorophenyl)-2-(5-fluoropyridin-3-yl)-N-[(2R)-1-hydroxypropan-2-yl]-3-oxo-2,3-dihydropyridazine-4-carboxamide], the IC50 in test [1] is 106 nM; in test [2], above 20000 nM.

Regarding `O=C(NC[C@H](O)C(F)(F)F)c1cc(-c2ccc(Cl)cc2)nn(-c2cnn(C3CCC3)c2)c1=O` [Example 40, 6-(4-Chlorophenyl)-2-(1-cyclobutyl-1H-pyrazol-4-yl)-3-oxo-N-[(2S)-3,3,3-trifluoro-2-hydroxypropyl]-2,3-dihydropyridazine-4-carboxamide], the IC50 was 1100 nM in test [1] and above 20000 nM in test [2].

On to `O=C(NC(CO)C1CC1)c1cc(-c2ccc(Cl)cc2)nn(-c2cccnc2)c1=O` (single isomer, unassigned; (+)) [Example 91, (+)-6-(4-Chlorophenyl)-N-(1-cyclopropyl-2-hydroxyethyl)-3-oxo-2-(pyridin-3-yl)-2,3-dihydropyridazine-4-carboxamide], for which the values for the IC50 in test [1] and in test [2] were 48.1 nM and above 20000 nM, respectively.

For the molecule `O=C(NC(CO)C1CC1)c1cc(-c2ccc(C(F)(F)F)cc2)nn(-c2cccnc2)c1=O` (racemic) [Example 109, N-[(1RS)-1-Cyclopropyl-2-hydroxyethyl]-3-oxo-2-(pyridin-3-yl)-6-[4-(trifluoromethyl)phenyl]-2,3-dihydropyridazine-4-carboxamide], the values for the IC50 in test [1] and in test [2] were 1.63 nM and above 20000 nM, respectively.

Turning to `C[C@@H](NC(=O)c1cc(-c2ccc(OC(F)(F)F)cc2)nn(-c2cccnc2)c1=O)C(C)(C)O` [Example 294, N-[(2R)-3-Hydroxy-3-methylbutan-2-yl]-3-oxo-2-(pyridin-3-yl)-6-[4-(trifluoromethoxy)phenyl]-2,3-dihydropyridazine-4-carboxamide], the IC50 in test [1] was 49.8 nM; in test [2], above 20000 nM.

Regarding `O=C(NC[C@H](O)C(F)(F)F)c1cc(-c2ccc(C(F)(F)F)cc2)nn(-c2cnn(C(F)F)c2)c1=O` [Example 223, 2-[1-(Difluoromethyl)-1H-pyrazol-4-yl]-3-oxo-N-[(2S)-3,3,3-trifluoro-2-hydroxypropyl]-6-[4-(trifluoromethyl)phenyl]-2,3-dihydropyridazine-4-carboxamide], the IC50 in test [1] is 4.31 nM; in test [2] it was above 20000 nM.

As for `Cn1cc(-n2nc(-c3ccc(Cl)cc3)cc(C(=O)N[C@H]3CCC[C@@H]3O)c2=O)cn1` (relative stereo) [Example 51, 6-(4-Chlorophenyl)-N-[(trans)-2-hydroxycyclopentyl]-2-(1-methyl-1H-pyrazol-4-yl)-3-oxo-2,3-dihydropyridazine-4-carboxamide], the figures for the IC50 in test [1] and in test [2] were 9.54 nM and above 20000 nM, respectively.

For `CC(C)(O)C(NC(=O)c1cc(-c2ccc(Cl)cc2)nn(-c2cccnc2)c1=O)C(F)(F)F` (single isomer, unassigned; enantiomer 2) [Example 123, 6-(4-Chlorophenyl)-3-oxo-2-(pyridin-3-yl)-N-(1,1,1-trifluoro-3-hydroxy-3-methylbutan-2-yl)-2,3-dihydropyridazine-4-carboxamide, Enantiomer 2], the IC50 in test [1] was 5.7 nM; in test [2], above 20000 nM.

As to `Cn1cc(-n2nc(-c3ccc(C(F)F)cc3)cc(C(=O)N[C@@H]3COC[C@@H]3O)c2=O)cn1` (single isomer, unassigned) [Example 320, 6-[4-(Difluoromethyl)phenyl]-N-[(cis)-4-hydroxytetrahydrofuran-3-yl]-2-(1-methyl-1H-pyrazol-4-yl)-3-oxo-2,3-dihydropyridazine-4-carboxamide], the IC50 in test [1] was 44.1 nM; in test [2], above 20000 nM.

As for `Cn1cc(-n2nc(-c3ccc(C(F)(F)F)cc3)cc(C(=O)NC[C@H](O)CF)c2=O)cn1` [Example 245, N-[(2S)-3-Fluoro-2-hydroxypropyl]-2-(1-methyl-1H-pyrazol-4-yl)-3-oxo-6-[4-(trifluoromethyl)phenyl]-2,3-dihydropyridazine-4-carboxamide], the IC50 in test [1] is 12.8 nM; in test [2], above 20000 nM.

With `C[C@@H](NC(=O)c1cc(-c2ccc(Cl)cc2)nn(-c2cn[nH]c2)c1=O)C(C)(C)O` [Example 325, 6-(4-Chlorophenyl)-N-[(2R)-3-hydroxy-3-methylbutan-2-yl]-3-oxo-2-(1H-pyrazol-4-yl)-2,3-dihydropyridazine-4-carboxamide], the figures for the IC50 in test [1] and in test [2] were 242 nM and above 20000 nM, respectively.

On to `O=C(N[C@@H]1CCC[C@H]1O)c1cc(-c2ccc(Cl)cc2)nn(-c2cccnc2)c1=O` (relative stereo) [Example 148, 6-(4-Chlorophenyl)-N-[(trans)-2-hydroxycyclopentyl]-3-oxo-2-(pyridin-3-yl)-2,3-dihydropyridazine-4-carboxamide], for which the IC50 was 15.3 nM in test [1] and above 20000 nM in test [2].

Take `C[C@@H](CO)NC(=O)c1cc(-c2ccc(C(F)F)cc2)nn(-c2cccnc2)c1=O` [Example 151, 6-[4-(Difluoromethyl)phenyl]-N-[(2S)-1-hydroxypropan-2-yl]-3-oxo-2-(pyridin-3-yl)-2,3-dihydropyridazine-4-carboxamide]: the IC50 was 21.1 nM in test [1] and above 20000 nM in test [2].

Take `C[C@@H](NC(=O)c1cc(-c2ccc(Cl)cc2)nn(-c2cnsc2)c1=O)C(C)(C)O` [Example 326, 6-(4-Chlorophenyl)-N-[(2R)-3-hydroxy-3-methylbutan-2-yl]-3-oxo-2-(1,2-thiazol-4-yl)-2,3-dihydropyridazine-4-carboxamide]: the IC50 in test [1] is 0.504 nM; in test [2] it was above 20000 nM.

`O=C(N[C@H]1COC[C@@H]1O)c1cc(-c2ccc(Cl)cc2)nn(-c2cccnc2)c1=O` (single isomer, unassigned; enantiomer 1) [Example 169, 6-(4-Chlorophenyl)-N-[(trans)-4-hydroxytetrahydrofuran-3-yl]-3-oxo-2-(pyridin-3-yl)-2,3-dihydropyridazine-4-carboxamide, Enantiomer 1]: the IC50 in test [1] was 31.7 nM; in test [2], above 20000 nM.

With `C[C@H](NC(=O)c1cc(-c2ccc(OC(F)F)cc2)nn(-c2cccnc2)c1=O)C(C)(C)O` [Example 333, 6-[4-(Difluoromethoxy)phenyl]-N-[(2S)-3-hydroxy-3-methylbutan-2-yl]-3-oxo-2-(pyridin-3-yl)-2,3-dihydropyridazine-4-carboxamide], the IC50 in test [1] was 74.9 nM; in test [2], above 20000 nM.

As for `O=C(N[C@H](CO)C(F)(F)F)c1cc(-c2ccc(Cl)cc2)nn(-c2cnn(C(F)F)c2)c1=O` [Example 236, 6-(4-Chlorophenyl)-2-[1-(difluoromethyl)-1H-pyrazol-4-yl]-3-oxo-N-[(2R)-1,1,1-trifluoro-3-hydroxypropan-2-yl]-2,3-dihydropyridazine-4-carboxamide], the IC50 in test [1] is 9.03 nM; in test [2] it was above 20000 nM.

`C[C@@H](CO)NC(=O)c1cc(-c2ccc(C(F)F)nc2)nn(-c2cccnc2)c1=O` [Example 180, 6-[6-(Difluoromethyl)pyridin-3-yl]-N-[(2S)-1-hydroxypropan-2-yl]-3-oxo-2-(pyridin-3-yl)-2,3-dihydropyridazine-4-carboxamide]: the results for the IC50 in test [1] and in test [2] were 794 nM and above 20000 nM, respectively.

As to `Cn1cc(-n2nc(-c3ccc(OC(F)(F)F)cc3)cc(C(=O)N[C@@H]3COC[C@H]3O)c2=O)cn1` (single isomer, unassigned; enantiomer 2) [Example 65, N-[(trans)-4-Hydroxytetrahydrofuran-3-yl]-2-(1-methyl-1H-pyrazol-4-yl)-3-oxo-6-[4-(trifluoromethoxy)phenyl]-2,3-dihydropyridazine-4-carboxamide, Enantiomer 2], the values for the IC50 in test [1] and in test [2] were 25.5 nM and above 20000 nM, respectively.

Consider `O=C(N[C@H]1COC[C@@H]1O)c1cc(-c2ccc(Cl)cc2)nn(-c2cncc(F)c2)c1=O` (relative stereo) [Example 154, 6-(4-Chlorophenyl)-2-(5-fluoropyridin-3-yl)-N-[(trans)-4-hydroxytetrahydrofuran-3-yl]-3-oxo-2,3-dihydropyridazine-4-carboxamide], for which the IC50 was 36.8 nM in test [1] and above 20000 nM in test [2].

Usually IC50 stands for the concentration at which inhibition is half-maximal.
